According to patent US20260042731A1, “(2,4-DICHLOROPHENOXY)ACETIC ACID ANALOGS” (CORTEVA AGRISCIENCE LLC, priority 2022, published 2026):
Where two headings read alike, the source gives them in different places.

Legend:
[1] = test system: Amaranthus rudis (AMATA), tall water hemp; assay: Postemergence herbicide evaluation, growth of Amaranthus rudis (AMATA); format: in vivo; settings: for pest or weed control at 280 g/ha / pest or weed control at 560 g/ha: Amaranthus tuberculatus, post-emergence, read-out: Ave. AMATA, percent reduction in plant size relative to the untreated control
[2] = test system: Ambrosia artemisiifolia (AMBEL), common ragweed; assay: Postemergence herbicide evaluation, growth of Ambrosia artemisiifolia (AMBEL); format: in vivo; settings: for pest or weed control at 280 g/ha / pest or weed control at 560 g/ha: Ambrosia artemisiifolia, post-emergence, read-out: AVE. AMBEL, percent reduction in plant size relative to the untreated control
[3] = test system: Abutilon theophrasti (ABUTH), velvetleaf; assay: Postemergence herbicide evaluation, growth of Abutilon theophrasti (ABUTH); format: in vivo; settings: for pest or weed control at 280 g/ha / pest or weed control at 560 g/ha: Abutilon theophrasti, post-emergence, read-out: AVE. ABUTH, percent reduction in plant size relative to the untreated control
[4] = test system: Chenopodium album (CHEAL), common lambsquarters; assay: Postemergence herbicide evaluation, growth of Chenopodium album (CHEAL); format: in vivo; settings: for pest or weed control at 280 g/ha / pest or weed control at 560 g/ha: Chenopodium album, post-emergence, read-out: Ave. CHEAL, percent reduction in plant size relative to the untreated control
[5] = test system: glyphosate resistant Conyza canadensis (L.) (ERICA), horseweed; assay: Postemergence herbicide evaluation, growth of Conyza canadensis (ERICA); format: in vivo; settings: for pest or weed control at 280 g/ha / pest or weed control at 560 g/ha: Erigeron canadensis, post-emergence, read-out: Ave. ERICA, percent reduction in plant size relative to the untreated control
[6] = Volatility of compounds measured by thermogravimetric analysis (TGA); format: physicochemical
[7] = test system: weeds ABUTH, AMATA, AMBEL, CHEAL, ERICA; assay: Postemergence herbicide evaluation, overall average % weed control (ABUTH, AMATA, AMBEL, CHEAL, ERICA); format: in vivo; settings: for pest or weed control at 280 g/ha / pest or weed control at 560 g/ha: post-emergence, read-out: Overall Ave % Weed Control

For `O=C(COc1ccc(Cl)cc1Cl)Oc1cncnc1` [Compound E1], the “Ave. AMATA, percent reduction in plant size relative to the untreated control” value ([1]; 280 g ae/ha, 7 DAA) was 78%, the “Ave. AMATA, percent reduction in plant size relative to the untreated control” value ([1]; 280 g ae/ha, 14 DAA) was 75% and the “Ave. AMATA, percent reduction in plant size relative to the untreated control” value ([1]; 280 g ae/ha, 21 DAA) was 70%. The “Ave. AMATA, percent reduction in plant size relative to the untreated control” value ([1]; 560 g ae/ha, 7 DAA) was 73%, the “Ave. AMATA, percent reduction in plant size relative to the untreated control” value ([1]; 560 g ae/ha, 14 DAA) was 85% and the “Ave. AMATA, percent reduction in plant size relative to the untreated control” value ([1]; 560 g ae/ha, 21 DAA) was 85%. For the same compound, the “AVE. AMBEL, percent reduction in plant size relative to the untreated control” value ([2]; 280 g ae/ha, 7 DAA) was 65%, the “AVE. AMBEL, percent reduction in plant size relative to the untreated control” value ([2]; 280 g ae/ha, 14 DAA) was 96% and the “AVE. AMBEL, percent reduction in plant size relative to the untreated control” value ([2]; 280 g ae/ha, 21 DAA) was 99%. For the same compound, the “AVE. AMBEL, percent reduction in plant size relative to the untreated control” value ([2]; 560 g ae/ha, 7 DAA) was 73%, the “AVE. AMBEL, percent reduction in plant size relative to the untreated control” value ([2]; 560 g ae/ha, 14 DAA) was 90% and the “AVE. AMBEL, percent reduction in plant size relative to the untreated control” value ([2]; 560 g ae/ha, 21 DAA) was 97%. For the same compound, the “AVE. ABUTH, percent reduction in plant size relative to the untreated control” value ([3]; 280 g ae/ha, 7 DAA) was 93%, the “AVE. ABUTH, percent reduction in plant size relative to the untreated control” value ([3]; 280 g ae/ha, 14 DAA) was 96% and the “AVE. ABUTH, percent reduction in plant size relative to the untreated control” value ([3]; 280 g ae/ha, 21 DAA) was 100%. For the same compound, the “AVE. ABUTH, percent reduction in plant size relative to the untreated control” value ([3]; 560 g ae/ha, 7 DAA) was 85%, the “AVE. ABUTH, percent reduction in plant size relative to the untreated control” value ([3]; 560 g ae/ha, 14 DAA) was 97% and the “AVE. ABUTH, percent reduction in plant size relative to the untreated control” value ([3]; 560 g ae/ha, 21 DAA) was 100%. For the same compound, the “Ave. CHEAL, percent reduction in plant size relative to the untreated control” value ([4]; 280 g ae/ha, 7 DAA) was 70%, the “Ave. CHEAL, percent reduction in plant size relative to the untreated control” value ([4]; 280 g ae/ha, 14 DAA) was 73% and the “Ave. CHEAL, percent reduction in plant size relative to the untreated control” value ([4]; 280 g ae/ha, 21 DAA) was 78%. The “Ave. CHEAL, percent reduction in plant size relative to the untreated control” value ([4]; 560 g ae/ha, 7 DAA) was 75%, the “Ave. CHEAL, percent reduction in plant size relative to the untreated control” value ([4]; 560 g ae/ha, 14 DAA) was 90% and the “Ave. CHEAL, percent reduction in plant size relative to the untreated control” value ([4]; 560 g ae/ha, 21 DAA) was 87%. The “Ave. ERICA, percent reduction in plant size relative to the untreated control” value ([5]; 280 g ae/ha, 7 DAA) was 68%, the “Ave. ERICA, percent reduction in plant size relative to the untreated control” value ([5]; 280 g ae/ha, 14 DAA) was 85% and the “Ave. ERICA, percent reduction in plant size relative to the untreated control” value ([5]; 280 g ae/ha, 21 DAA) was 95%. The “Ave. ERICA, percent reduction in plant size relative to the untreated control” value ([5]; 560 g ae/ha, 7 DAA) was 75%, the “Ave. ERICA, percent reduction in plant size relative to the untreated control” value ([5]; 560 g ae/ha, 14 DAA) was 85% and the “Ave. ERICA, percent reduction in plant size relative to the untreated control” value ([5]; 560 g ae/ha, 21 DAA) was 98%. The “TGA Data (rate of weight loss, volatility)” value [6] was 0.8 µg/min, the “Overall Ave % Weed Control” value ([7]; 280 g ae/ha, 7 DAA) was 75% and the “Overall Ave % Weed Control” value ([7]; 280 g ae/ha, 14 DAA) was 85%. For the same compound, the “Overall Ave % Weed Control” value ([7]; 280 g ae/ha, 21 DAA) was 88%, the “Overall Ave % Weed Control” value ([7]; 560 g ae/ha, 7 DAA) was 76% and the “Overall Ave % Weed Control” value ([7]; 560 g ae/ha, 14 DAA) was 89%. For the same compound, the “Overall Ave % Weed Control” value ([7]; 560 g ae/ha, 21 DAA) was 93%.

With `O=C(COc1ccc(Cl)cc1Cl)Oc1ncc(Cl)cn1` [Compound E13] the pest or weed control at 280 g/ha ([1]; 168 h, 280 g ae/ha, 7 DAA) was 85%, the pest or weed control at 560 g/ha ([1]; 168 h, 560 g ae/ha, 7 DAA) was 87.5% and the pest or weed control at 280 g/ha ([1]; 336 h, 280 g ae/ha, 14 DAA) was 82.5%. It also gave a pest or weed control at 560 g/ha ([1]; 336 h, 560 g ae/ha, 14 DAA) of 96%, a pest or weed control at 280 g/ha ([1]; 504 h, 280 g ae/ha, 21 DAA) of 86.5% and a pest or weed control at 560 g/ha ([1]; 504 h, 560 g ae/ha, 21 DAA) of 99%. For the same compound, the pest or weed control at 280 g/ha ([2]; 168 h, 280 g ae/ha, 7 DAA) was 70%, the pest or weed control at 560 g/ha ([2]; 168 h, 560 g ae/ha, 7 DAA) was 82.5% and the pest or weed control at 280 g/ha ([2]; 336 h, 280 g ae/ha, 14 DAA) was 89.5%. The pest or weed control at 560 g/ha ([2]; 336 h, 560 g ae/ha, 14 DAA) was 97.5%, the pest or weed control at 280 g/ha ([2]; 504 h, 280 g ae/ha, 21 DAA) was 100% and the pest or weed control at 560 g/ha ([2]; 504 h, 560 g ae/ha, 21 DAA) was 100%. The pest or weed control at 280 g/ha ([3]; 168 h, 280 g ae/ha, 7 DAA) was 76.5%, the pest or weed control at 560 g/ha ([3]; 168 h, 560 g ae/ha, 7 DAA) was 72.5% and the pest or weed control at 280 g/ha ([3]; 336 h, 280 g ae/ha, 14 DAA) was 90%. It also gave a pest or weed control at 560 g/ha ([3]; 336 h, 560 g ae/ha, 14 DAA) of 93.5%, a pest or weed control at 280 g/ha ([3]; 504 h, 280 g ae/ha, 21 DAA) of 100% and a pest or weed control at 560 g/ha ([3]; 504 h, 560 g ae/ha, 21 DAA) of 100%. The pest or weed control at 280 g/ha ([4]; 168 h, 280 g ae/ha, 7 DAA) was 77.5%, the pest or weed control at 560 g/ha ([4]; 168 h, 560 g ae/ha, 7 DAA) was 85% and the pest or weed control at 280 g/ha ([4]; 336 h, 280 g ae/ha, 14 DAA) was 95%. It also gave a pest or weed control at 560 g/ha ([4]; 336 h, 560 g ae/ha, 14 DAA) of 90%, a pest or weed control at 280 g/ha ([4]; 504 h, 280 g ae/ha, 21 DAA) of 96.5% and a pest or weed control at 560 g/ha ([4]; 504 h, 560 g ae/ha, 21 DAA) of 100%. The pest or weed control at 280 g/ha ([5]; 168 h, 280 g ae/ha, 7 DAA) was 82.5%, the pest or weed control at 560 g/ha ([5]; 168 h, 560 g ae/ha, 7 DAA) was 80% and the pest or weed control at 280 g/ha ([5]; 336 h, 280 g ae/ha, 14 DAA) was 100%. The pest or weed control at 560 g/ha ([5]; 336 h, 560 g ae/ha, 14 DAA) was 99%, the pest or weed control at 280 g/ha ([5]; 504 h, 280 g ae/ha, 21 DAA) was 99.5% and the pest or weed control at 560 g/ha ([5]; 504 h, 560 g ae/ha, 21 DAA) was 97.5%. For the same compound, the “TGA Data (rate of weight loss, volatility)” value [6] was 0.16 µg/min, the pest or weed control at 280 g/ha ([7]; 168 h, 280 g ae/ha, 7 DAA) was 78.3% and the pest or weed control at 560 g/ha ([7]; 168 h, 560 g ae/ha, 7 DAA) was 81.5%. For the same compound, the pest or weed control at 280 g/ha ([7]; 336 h, 280 g ae/ha, 14 DAA) was 91.4%, the pest or weed control at 560 g/ha ([7]; 336 h, 560 g ae/ha, 14 DAA) was 95.2% and the pest or weed control at 280 g/ha ([7]; 504 h, 280 g ae/ha, 21 DAA) was 96.5%. For the same compound, the pest or weed control at 560 g/ha ([7]; 504 h, 560 g ae/ha, 21 DAA) was 99.3%.
